Test results reported in patent publication US8278480B2, “Salts, aqueous liquid compositions containing salts of S-(+)-abscisic acid and methods of their preparation” (Valent BioSciences Corporation, priority 2008, dated 2012).
Several values for one entry are separate records, joined by “and”; a condition that tells them apart may be missing. Identical values can stand only once. Counter-ions that a name gives are not always drawn.

Columns and labels:
[1] = tested on: tomato shoot fresh weight; test: Tomato shoot fresh weight 7 days after treatment (growth suppression); type: in vivo, Tomato (variety: Rutgers); settings: foliar spray
Procedure: (§1) Preparation of plant specimens for use in the treatment studies of the EXAMPLES that follow was carried out as follows. Tomato (variety: Rutgers) seeds were sown in an 18-cell flat filled with Promix PGX (available from Premier Horticulture Inc., Quakertown Pa.) and grown for 3 weeks to allow for germination and initial growth. Plants were then transplanted into pots (18 cm in diameter and 18 cm in height), filled with Promix BX (available from Premier Horticulture Inc., Quakertown Pa.), and grown for one or two more weeks before treatment, depending on temperature and available light. Plants received daily irrigation and weekly fertilizer (1 g/L all purpose fertilizer 20-20-20, available from The Scotts Company, Marysville, Ohio).
(§2) All treatment solutions were made up with distilled water. The (S)-(+)-abscisic acid (95% active ingredient) is available from Lomon BioTechnology Co., Ltd. (Shichuan, China). The prior art aqueous solution composition of the ammonium salt of (S)-(+)-abscisic acid as prepared in Example 11 above was used as a positive treatment control for most of the studies.
(§3) All experiments were conducted using a randomized complete block experimental design. Solutions of (S)-(+)-abscisic acid and blank treatments (plain water) were applied by spray to the aerial parts of the tomato plants at the rate of 24 mL per 6 plants. Plants were then placed in a transparent chamber with humidity controlled within the range of 40 to 60% relative humidity. Leaf transpiration rates were measured at 1, 2, 3, 4 and 7 days after treatment. Measurements were conducted using a LI-1600 Steady State Porometer (LI-Cor, Lincoln, Nebr.). Each day the transpiration rate of the plants of each treatment group was normalized to a percentage of the transpiration rate of untreated plants (plants sprayed with water only) in order to control for day-to-day variability in plant status caused by changes of environmental conditions such as light intensity and temperature. Data for each plant was also averaged over a 3-day period to balance the short term and long term effect of (S)-(+)-abscisic acid on tomato leaf transpiration as well as to reduce experimental variability.
In this experiment, the fresh weights of the aerial parts of the tomato plants were also measured at the end of the experiment, 7 days after treatments were applied, in order to assess the relative growth suppressing activity of the compositions.

tomato plants = test: Phytotoxicity observed on treated tomato plants; type: in vivo, Tomato (variety: Rutgers)
Procedure: as §3, with “variability. It is important to note that no phytotoxicity was observed on any of the plants treated with the compositions of the present invention.” for “variability.”

[2] = tested on: tomato leaf transpiration; test: Tomato leaf transpiration inhibition after foliar spray (LI-1600 porometer); type: in vivo, Tomato (variety: Rutgers); settings: for Transpiration rate (% of control), 1 day after treatment: day 1; for Transpiration rate (% of control), 2 days after treatment: day 2; for Transpiration rate (% of control), 3 days after treatment: day 3; for Transpiration rate (% of control), 4 days after treatment: day 4; for Transpiration rate (% of control), 7 days after treatment: day 7; for ABA dose to achieve 50% inhibition of transpiration: from linear regression of 3-day average transpiration rate on log dose; for Transpiration rate (% of control), 9 days after treatment: day 9
Procedure: as §1, §2, §3
The regression equation of each (S)-(+)-abscisic acid salt as well as abscisic acid concentrations for 50% inhibition of transpiration were calculated. The relative potency of two ABA salts is the reciprocal of the ratio of (S)-(+)-abscisic acid concentration required for 50% transpiration inhibition for each composition.

[3] = cited from earlier work
tomato plant height = test: Tomato plant height 7 days after treatment (growth suppression); type: in vivo, Tomato (variety: Rutgers); settings: foliar spray
Procedure: as §1, §2
as §3, with “variability. It is important to note that no phytotoxicity was observed on any of the plants treated with the compositions of the present invention.” for “variability.”
In this experiment, the fresh weights of the aerial parts of the tomato plants and their heights were also measured at the end of the experiment, 7 days after treatments were applied, in order to assess the relative growth suppressing activity of the compositions.

[4] = 75 ppm (0.3 mg) (S)-(+)-abscisic acid
[5] = 250 ppm (1 mg) (S)-(+)-abscisic acid, additives as in label
[6] = 750 ppm (3 mg) (S)-(+)-abscisic acid
[7] = 2500 ppm (10 mg) (S)-(+)-abscisic acid
[8] = tomato plants after foliar spray
[9] = (S)-(+)-abscisic acid dose 0.3 mg, foliar spray
[10] = (S)-(+)-abscisic acid dose 1 mg, foliar spray
[11] = (S)-(+)-abscisic acid dose 3 mg, foliar spray
[12] = (S)-(+)-abscisic acid dose 10 mg, foliar spray
[13] = foliar spray, 250 ppm (S)-(+)-abscisic acid (1 mg), additives as in label
[14] = reciprocal of ratio of doses for 50% transpiration inhibition

SMILES | Fresh weight (g) 7 days after treatment [1, 4] | Fresh weight (g) 7 days after treatment [1, 5] | Fresh weight (g) 7 days after treatment [1, 6] | Fresh weight (g) 7 days after treatment [1, 7] | Phytotoxicity (tomato plants; [8]) | Transpiration rate (% of control), Average of 3 days after treatment [2, 9] | Transpiration rate (% of control), Average of 3 days after treatment [2, 10] | Transpiration rate (% of control), Average of 3 days after treatment [2, 11] | Transpiration rate (% of control), Average of 3 days after treatment [2, 12] | Transpiration rate (% of control), 7-Day Average [2, 13] | Transpiration rate (% of control), 1 day after treatment [2, 13] | Transpiration rate (% of control), 2 days after treatment [2, 13] | Transpiration rate (% of control), 3 days after treatment [2, 13] | Transpiration rate (% of control), 4 days after treatment [2, 13] | Transpiration rate (% of control), 7 days after treatment [2, 13] | ABA dose to achieve 50% inhibition of transpiration [2] | Relative potency compared to the ammonium salt composition of Comparative Example 11 [2, 14] | Transpiration rate (% of control), 9-Day Average [2, 13] | Transpiration rate (% of control), 9 days after treatment [2, 13] | other results
CC1=CC(=O)CC(C)(C)[C@@]1(O)/C=C/C(C)=C\C(=O)[O-].[Cs+] [Example 2, Cesium Salt of (S)-(+)-Abscisic Acid] | 16.2 g | 15.3 g | 14.7 g | 11.3 g | without producing phytotoxicity | 72 % of control | 57 % of control | 47 % of control | 37 % of control | 67.8 % of control | 47.1 % of control | 59.0 % of control | 63.9 % of control | 77.8 % of control | 91.1 % of control | 2.41 mg | 3.2 times and 2.8 times |  |  | 
CC1=CC(=O)CC(C)(C)[C@@]1(O)/C=C/C(C)=C\C(=O)O [abscisic acid, 2-cis-,4-trans-(S)-(+)-abscisic acid] |  |  |  |  |  |  |  |  |  |  |  |  |  |  |  |  |  |  |  | Solubility in propylene glycol ([3]; propylene glycol): poorly soluble; Solubility in water (highest concentration achievable) ([3]; pure water, room / ordinary ambient temperature): ≤ 3000 ppm
CC1=CC(=O)CC(C)(C)[C@@]1(O)/C=C/C(C)=C\C(=O)[O-].[Rb+] [Example 1, Rubidium Salt of (S)-(+)-Abscisic Acid] | 18.6 g | 18.1 g | 17.2 g | 16.4 g | without producing phytotoxicity | 77 % of control | 67 % of control | 54 % of control | 39 % of control | 75.9 % of control | 55.8 % of control | 68.0 % of control | 76.5 % of control | 88.2 % of control | 91.0 % of control | 4.05 mg | 2.4 times |  |  | 
CC1=CC(=O)CC(C)(C)[C@@]1(O)/C=C/C(C)=C\C(=O)O [Example 11, Ammonium Salt of (S)-(+)-Abscisic Acid, reference compound] |  |  |  |  |  | 82 % of control and 80 % of control and 77 % of control and 95 % of control and 90 % of control and 81 % of control and 88 % of control | 72 % of control and 69 % of control and 65 % of control and 78 % of control and 70 % of control and 77 % of control and 71 % of control | 60 % of control and 58 % of control and 55 % of control and 67 % of control and 59 % of control and 62 % of control and 57 % of control | 50 % of control and 48 % of control and 44 % of control and 53 % of control and 51 % of control and 52 % of control and 55 % of control and 49 % of control |  |  |  |  |  |  |  |  | 87.3 % of control | 100.8 % of control | Transpiration rate (% of control), 4 Day Average ([2]; foliar spray, 250 ppm (S)-(+)-abscisic acid (1 mg), additives as in label, 4-day average): 75.4 % of control; Plant height (cm) 7 days after treatment (tomato plant height; [4]): 19.9 cm; Plant height (cm) 7 days after treatment (tomato plant height; [5]): 19.8 cm and 32.1 cm; Plant height (cm) 7 days after treatment (tomato plant height; [6]): 18.6 cm; Plant height (cm) 7 days after treatment (tomato plant height; [7]): 18.6 cm
CC1=CC(=O)CC(C)(C)[C@@]1(O)/C=C/C(C)=C\C(=O)[O-].C[N+](C)(C)CCO [Example 5, Choline Salt of (S)-(+)-abscisic Acid] | 18.2 g | 17.5 g | 16.8 g | 16.0 g |  | 78 % of control | 63 % of control | 53 % of control | 41 % of control | 72.5 % of control | 52.3 % of control | 63.7 % of control | 73.8 % of control | 79.0 % of control | 93.4 % of control | 4.02 mg | 2.6 times and 4.2 times |  |  | Phytotoxicity (tomato plants; in vivo): without producing phytotoxicity
CC1=CC(=O)CC(C)(C)[C@@]1(O)/C=C/C(C)=C\C(=O)[O-].CCCC[N+](CCCC)(CCCC)CCCC [Example 4, Tetrabutylammonium Salt of (S)-(+)-Abscisic Acid] | 15.3 g | 14.8 g | 12.5 g | 11.4 g | without producing phytotoxicity | 84 % of control and 80 % of control | 72 % of control and 61 % of control | 56 % of control and 47 % of control | 38 % of control and 29 % of control | 70.9 % of control | 63.4 % of control and 55.1 % of control | 73.9 % of control and 61.0 % of control | 77.8 % of control and 68.3 % of control | 79.3 % of control and 77.6 % of control | 89.2 % of control and 92.4 % of control | 4.35 mg and 2.33 mg |  | 79.7 % of control | 94.6 % of control | Relative potency compared to the tributylamine salt composition of Comparative Example 14 [2, 14]: 1.9 times
